Laboratory results reported in the supplement of paper PMC8617591.

Assays:
[1] = system: Mycobacterium tuberculosis Erdman (autoluminescent); experiment: Einf, fitted maximum growth inhibition of three-drug combination (fraction); higher = stronger maximal inhibition
Method: (§1)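 DiaMOND equipotent three-drug combination dose responses (10 doses, 1.5- or 2-fold spacing, centred on IC90) against autoluminescent M. tuberculosis Erdman in 8 in vitro models. Read-out is OD600, or luminescence for the intracellular and dormancy models, normalised to untreated wells. Hill-fit Einf, AUC25 and GRinf are potency metrics; FIC50 and FIC90 are total Loewe fractional inhibitory concentrations as log2 (negative = synergy).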

[2] = system: Mycobacterium tuberculosis Erdman (autoluminescent); experiment: total FIC90 (Loewe) at 90% inhibition, three-drug combination (log2); higher = more antagonistic
Method: as §1

[3] = system: Mycobacterium tuberculosis Erdman (autoluminescent); experiment: total FIC50 (Loewe) at 50% inhibition, three-drug combination (log2); higher = more antagonistic
Method: as §1

[4] = system: Mycobacterium tuberculosis Erdman (autoluminescent); experiment: GRinf, maximum normalised growth rate inhibition (three-drug combination) (unitless (-1 to 1)); higher = less effect (negative = killing)
Method: as §1

[5] = system: Mycobacterium tuberculosis Erdman (autoluminescent); experiment: AUC25, normalised area under dose response up to IC25 (three-drug combination) (fraction (0-1)); higher = more potent at low dose
Method: as §1

[6] = in vitro model: acidic pH 5.7, time point: constant (~7 days, model-specific)
[7] = in vitro model: acidic pH 5.7, time point: terminal (~4-5 doublings, model-specific)
[8] = in vitro model: butyrate, time point: constant (~7 days, model-specific)
[9] = in vitro model: butyrate, time point: terminal (~4-5 doublings, model-specific)
[10] = in vitro model: cholesterol 0.05 mM, time point: constant (~7 days, model-specific)
[11] = in vitro model: cholesterol 0.05 mM, time point: terminal (~4-5 doublings, model-specific)
[12] = in vitro model: cholesterol-high 0.2 mM, time point: constant (~7 days, model-specific)
[13] = in vitro model: cholesterol-high 0.2 mM, time point: terminal (~4-5 doublings, model-specific)
[14] = in vitro model: dormancy (butyrate + nitrate, low O2), time point: constant (~7 days, model-specific)
[15] = in vitro model: dormancy (butyrate + nitrate, low O2), time point: terminal (~4-5 doublings, model-specific)
[16] = in vitro model: intracellular J774, time point: constant = terminal
[17] = in vitro model: standard 7H9 glycerol, time point: constant = terminal
[18] = in vitro model: valerate, time point: constant (~7 days, model-specific)
[19] = in vitro model: valerate, time point: terminal (~4-5 doublings, model-specific)

## CC(C)/N=c1\cc2n(-c3ccc(Cl)cc3)c3ccccc3nc-2cc1Nc1ccc(Cl)cc1 [clofazimine] + CC(=O)NC[C@H]1CN(c2ccc(N3CCOCC3)c(F)c2)C(=O)O1 [linezolid] + CO[C@H]1/C=C/O[C@@]2(C)Oc3c(C)c(O)c4c(O)c(c(/C=N/N5CCN(C6CCCC6)CC5)c(O)c4c3C2=O)NC(=O)/C(C)=C\C=C\[C@H](C)[C@H](O)[C@@H](C)[C@@H](O)[C@@H](C)[C@H](OC(C)=O)[C@@H]1C [rifapentine]
[1]; [6]
  Einf: 0.874
[1]; [7]
  Einf: 0.98
[1]; [8]
  Einf: 0.918
[1]; [9]
  Einf: 0.943
[1]; [10]
  Einf: 0.731
[1]; [11]
  Einf: 0.942
[1]; [12]
  Einf: 0.928
[1]; [13]
  Einf: 1
[1]; [14]
  Einf: 0.914
[1]; [15]
  Einf: 0.99
[1]; [16]
  Einf: 0.926
[1]; [17]
  Einf: 0.945
[1]; [18]
  Einf: 0.883
[1]; [19]
  Einf: 0.95
[2]; [7]
  total FIC90: 0.39
[2]; [8]
  total FIC90: 1.2
[2]; [9]
  total FIC90: -0.292
[2]; [11]
  total FIC90: 0.563
[2]; [12]
  total FIC90: 1.27
[2]; [13]
  total FIC90: 0.601
[2]; [14]
  total FIC90: 1.23
[2]; [15]
  total FIC90: 0.905
[2]; [16]
  total FIC90: -0.239
[2]; [17]
  total FIC90: 0.805
[2]; [19]
  total FIC90: 1.24
[3]; [6]
  total FIC50: 0.564
[3]; [7]
  total FIC50: 0.455
[3]; [8]
  total FIC50: 0.328
[3]; [9]
  total FIC50: 0.369
[3]; [10]
  total FIC50: -0.42
[3]; [11]
  total FIC50: 0.236
[3]; [12]
  total FIC50: 0.312
[3]; [13]
  total FIC50: 0.111
[3]; [14]
  total FIC50: 1.42
[3]; [15]
  total FIC50: 1.03
[3]; [17]
  total FIC50: 0.0429
[3]; [18]
  total FIC50: 0.974
[3]; [19]
  total FIC50: 0.608
[4]; [6]
  GRinf: -0.12
[4]; [7]
  GRinf: -0.151
[4]; [8]
  GRinf: -0.00889
[4]; [9]
  GRinf: 0.0319
[4]; [10]
  GRinf: -0.0827
[4]; [11]
  GRinf: -0.212
[4]; [12]
  GRinf: -0.916
[4]; [13]
  GRinf: -0.975
[4]; [14]
  GRinf: 0.025
[4]; [15]
  GRinf: -0.23
[4]; [16]
  GRinf: -0.19
[4]; [17]
  GRinf: 0.00644
[4]; [18]
  GRinf: -0.112
[4]; [19]
  GRinf: -0.00893
[5]; [6]
  AUC25: 0.0854
[5]; [7]
  AUC25: 0.0814
[5]; [8]
  AUC25: 0.0929
[5]; [9]
  AUC25: 0.0457
[5]; [10]
  AUC25: 0.126
[5]; [11]
  AUC25: 0.136
[5]; [12]
  AUC25: 0.114
[5]; [13]
  AUC25: 0.124
[5]; [14]
  AUC25: 0.0702
[5]; [15]
  AUC25: 0.046
[5]; [17]
  AUC25: 0.105
[5]; [18]
  AUC25: 0.113
[5]; [19]
  AUC25: 0.0863

## CC(C)/N=c1\cc2n(-c3ccc(Cl)cc3)c3ccccc3nc-2cc1Nc1ccc(Cl)cc1 [clofazimine] + CC(=O)NC[C@H]1CN(c2ccc(N3CCOCC3)c(F)c2)C(=O)O1 [linezolid] + CO[C@H]1/C=C/O[C@@]2(C)Oc3c(C)c(O)c4c(O)c(c(/C=N/N5CCN(C)CC5)c(O)c4c3C2=O)NC(=O)/C(C)=C\C=C\[C@H](C)[C@H](O)[C@@H](C)[C@@H](O)[C@@H](C)[C@H](OC(C)=O)[C@@H]1C [rifampicin]
[1]; [6]
  Einf: 0.853
[1]; [7]
  Einf: 0.981
[1]; [8]
  Einf: 0.922
[1]; [9]
  Einf: 0.95
[1]; [10]
  Einf: 0.687
[1]; [11]
  Einf: 0.908
[1]; [12]
  Einf: 0.963
[1]; [13]
  Einf: 0.995
[1]; [14]
  Einf: 0.908
[1]; [15]
  Einf: 0.979
[1]; [16]
  Einf: 0.941
[1]; [17]
  Einf: 0.917
[1]; [18]
  Einf: 0.885
[1]; [19]
  Einf: 0.942
[2]; [7]
  total FIC90: 0.256
[2]; [8]
  total FIC90: 0.103
[2]; [9]
  total FIC90: -0.0854
[2]; [11]
  total FIC90: -0.0601
[2]; [12]
  total FIC90: 0.45
[2]; [13]
  total FIC90: 0.174
[2]; [14]
  total FIC90: 0.832
[2]; [15]
  total FIC90: 0.6
[2]; [16]
  total FIC90: -0.471
[2]; [17]
  total FIC90: 0.29
[2]; [19]
  total FIC90: 0.805
[3]; [6]
  total FIC50: 0.38
[3]; [7]
  total FIC50: 0.419
[3]; [8]
  total FIC50: 0.22
[3]; [9]
  total FIC50: 0.26
[3]; [10]
  total FIC50: -0.708
[3]; [11]
  total FIC50: 4.59
[3]; [12]
  total FIC50: 0.342
[3]; [13]
  total FIC50: 0.34
[3]; [14]
  total FIC50: 1.29
[3]; [15]
  total FIC50: 0.408
[3]; [17]
  total FIC50: 0.0668
[3]; [18]
  total FIC50: 0.928
[3]; [19]
  total FIC50: 0.756
[4]; [6]
  GRinf: -0.0709
[4]; [7]
  GRinf: -0.119
[4]; [8]
  GRinf: -0.0328
[4]; [9]
  GRinf: 0.00888
[4]; [10]
  GRinf: 0.0599
[4]; [11]
  GRinf: -0.188
[4]; [12]
  GRinf: -0.755
[4]; [13]
  GRinf: -0.935
[4]; [14]
  GRinf: 0.229
[4]; [15]
  GRinf: -0.148
[4]; [16]
  GRinf: -0.215
[4]; [17]
  GRinf: 0.0708
[4]; [18]
  GRinf: -0.0893
[4]; [19]
  GRinf: -0.0199
[5]; [6]
  AUC25: 0.0866
[5]; [7]
  AUC25: 0.0808
[5]; [8]
  AUC25: 0.103
[5]; [9]
  AUC25: 0.07
[5]; [10]
  AUC25: 0.14
[5]; [11]
  AUC25: 0.132
[5]; [12]
  AUC25: 0.13
[5]; [13]
  AUC25: 0.107
[5]; [14]
  AUC25: 0.0831
[5]; [15]
  AUC25: 0.0549
[5]; [17]
  AUC25: 0.0962
[5]; [18]
  AUC25: 0.0981
[5]; [19]
  AUC25: 0.058

## CC(C)/N=c1\cc2n(-c3ccc(Cl)cc3)c3ccccc3nc-2cc1Nc1ccc(Cl)cc1 [clofazimine] + CC(=O)NC[C@H]1CN(c2ccc(N3CCOCC3)c(F)c2)C(=O)O1 [linezolid] + COc1c(N2C[C@@H]3CCCN[C@@H]3C2)c(F)cc2c(=O)c(C(=O)O)cn(C3CC3)c12 [moxifloxacin]
[1]; [6]
  Einf: 0.706
[1]; [7]
  Einf: 0.915
[1]; [8]
  Einf: 0.956
[1]; [9]
  Einf: 0.978
[1]; [10]
  Einf: 0.693
[1]; [11]
  Einf: 0.925
[1]; [12]
  Einf: 0.935
[1]; [13]
  Einf: 1
[1]; [14]
  Einf: 0.903
[1]; [15]
  Einf: 0.983
[1]; [16]
  Einf: 0.859
[1]; [17]
  Einf: 0.971
[1]; [18]
  Einf: 0.868
[1]; [19]
  Einf: 0.919
[2]; [7]
  total FIC90: -0.131
[2]; [8]
  total FIC90: 1.3
[2]; [9]
  total FIC90: 1.05
[2]; [11]
  total FIC90: 1.39
[2]; [12]
  total FIC90: 0.869
[2]; [13]
  total FIC90: 0.513
[2]; [14]
  total FIC90: 0.822
[2]; [15]
  total FIC90: 0.998
[2]; [16]
  total FIC90: 0.527
[2]; [17]
  total FIC90: 1.19
[2]; [19]
  total FIC90: 1.06
[3]; [6]
  total FIC50: -0.736
[3]; [7]
  total FIC50: 0.837
[3]; [8]
  total FIC50: 0.741
[3]; [9]
  total FIC50: 0.802
[3]; [10]
  total FIC50: 0.0515
[3]; [11]
  total FIC50: 0.132
[3]; [12]
  total FIC50: 0.411
[3]; [13]
  total FIC50: -0.0894
[3]; [14]
  total FIC50: 1.33
[3]; [15]
  total FIC50: 1.18
[3]; [17]
  total FIC50: 0.199
[3]; [18]
  total FIC50: 0.648
[3]; [19]
  total FIC50: 0.275
[4]; [6]
  GRinf: -0.3
[4]; [7]
  GRinf: -0.183
[4]; [8]
  GRinf: -0.279
[4]; [9]
  GRinf: -0.148
[4]; [10]
  GRinf: -0.0883
[4]; [11]
  GRinf: -0.21
[4]; [12]
  GRinf: -1
[4]; [13]
  GRinf: -1
[4]; [14]
  GRinf: 0.201
[4]; [15]
  GRinf: -0.18
[4]; [16]
  GRinf: -0.214
[4]; [17]
  GRinf: -0.383
[4]; [18]
  GRinf: -0.197
[4]; [19]
  GRinf: -0.0235
[5]; [6]
  AUC25: 0.0788
[5]; [7]
  AUC25: 0.0696
[5]; [8]
  AUC25: 0.113
[5]; [9]
  AUC25: 0.0854
[5]; [10]
  AUC25: 0.141
[5]; [11]
  AUC25: 0.148
[5]; [12]
  AUC25: 0.139
[5]; [13]
  AUC25: 0.127
[5]; [14]
  AUC25: 0.0737
[5]; [15]
  AUC25: 0.0474
[5]; [17]
  AUC25: 0.105
[5]; [18]
  AUC25: 0.124
[5]; [19]
  AUC25: 0.0951
